pKi: −log10 of the molar value.
Tests used:
[1] = target: Serine/threonine-protein kinase PAK 4 (Homo sapiens) (UniProt O96013); experiment: Inhibition of PAK4 (unknown origin) at 100 nM
[2] = target: Serine/threonine-protein kinase D1 (Homo sapiens) (UniProt Q15139); experiment: Inhibition of PKD1 (unknown origin) at 100 nM
[3] = target: Tyrosine-protein kinase Fyn (Homo sapiens) (UniProt P06241); experiment: Inhibition of FYN (unknown origin) at 100 nM
[4] = Efflux ratio of permeability from basolateral to apical side over apical to basolateral side in MDCK cells; format: ADME, cell-based, Canis lupus familiaris; details: dog
[5] = target: Ribosomal protein S6 kinase alpha-1 (Homo sapiens) (UniProt Q15418); experiment: Inhibition of RSK1 (unknown origin) at 100 nM
[6] = target: Serine/threonine-protein kinase mTOR (Homo sapiens) (UniProt P42345); experiment: Inhibition of mTOR (unknown origin) at 100 nM
[7] = target: Tyrosine-protein kinase JAK1 (Homo sapiens) (UniProt P23458); experiment: Inhibition of JAK1 (unknown origin) at 100 nM
[8] = Volume of distribution at steady state in rat; format: ADME, organism-based; details: in vivo, read-out: Vdss
[9] = target: CDK8/Cyclin C (Homo sapiens) (UniProt P49336+P24863); experiment: Inhibition of CDK8/cyclinC (unknown origin) at 100 nM; format: protein-complex assay
[10] = target: Mitogen-activated protein kinase kinase kinase 14 (Homo sapiens) (UniProt Q99558); experiment: Inhibition of NIK (unknown origin) at 100 nM
[11] = target: Tyrosine-protein kinase ABL1 (Homo sapiens) (UniProt P00519); experiment: Inhibition of ABL (unknown origin) at 100 nM
[12] = target: Tyrosine-protein kinase Yes (Homo sapiens) (UniProt P07947); experiment: Inhibition of YES (unknown origin) at 100 nM
[13] = target: Tyrosine-protein kinase Lck (Homo sapiens) (UniProt P06239); experiment: Inhibition of LCK (unknown origin) at 100 nM
[14] = target: Insulin-like growth factor 1 receptor (Homo sapiens) (UniProt P08069); experiment: Inhibition of IGF1R (unknown origin) at 100 nM
[15] = target: SRSF protein kinase 2 (Homo sapiens) (UniProt P78362); experiment: Inhibition of SRPK2 (unknown origin) at 100 nM
[16] = target: Serine/threonine-protein kinase Nek1 (Homo sapiens) (UniProt Q96PY6); experiment: Inhibition of NEK1 (unknown origin) at 100 nM
[17] = target: Tyrosine-protein kinase SYK (Homo sapiens) (UniProt P43405); experiment: Inhibition of SYK (unknown origin) at 100 nM
[18] = species on record: Homo sapiens; experiment: Inhibition of PKCbeta1 (unknown origin) at 100 nM
[19] = target: Mast/stem cell growth factor receptor Kit (Homo sapiens) (UniProt P10721); experiment: Inhibition of KIT (unknown origin) at 100 nM
[20] = target: Cyclin-dependent kinase 5/CDK5 activator 1 (Homo sapiens) (UniProt Q00535+Q15078); experiment: Inhibition of CDK5/p25 (unknown origin) at 100 nM; format: protein-complex assay
[21] = target: Tyrosine-protein kinase JAK2 (Homo sapiens) (UniProt O60674); experiment: Inhibition of JAK2 (unknown origin) at 100 nM
[22] = target: Epidermal growth factor receptor (Homo sapiens, UniProt P00533); experiment: Inhibition of wild type EGFR (unknown origin)
[23] = target: Fibroblast growth factor receptor 1 (Homo sapiens) (UniProt P11362); experiment: Inhibition of FGFR1 (unknown origin) at 100 nM
[24] = target: CDK2/Cyclin A2 (Homo sapiens) (UniProt P24941+P20248); experiment: Inhibition of CDK2/cyclinA (unknown origin) at 100 nM; format: protein-complex assay
[25] = target: Proto-oncogene tyrosine-protein kinase Src (Homo sapiens) (UniProt P12931); experiment: Inhibition of SRC (unknown origin) at 100 nM
[26] = target: T1, Inhibitor of nuclear factor kappa-B kinase subunit epsilon (Homo sapiens) (UniProt Q14164); experiment: Inhibition of IKKepsilon (unknown origin) at 100 nM
T1 sequence (whole entry): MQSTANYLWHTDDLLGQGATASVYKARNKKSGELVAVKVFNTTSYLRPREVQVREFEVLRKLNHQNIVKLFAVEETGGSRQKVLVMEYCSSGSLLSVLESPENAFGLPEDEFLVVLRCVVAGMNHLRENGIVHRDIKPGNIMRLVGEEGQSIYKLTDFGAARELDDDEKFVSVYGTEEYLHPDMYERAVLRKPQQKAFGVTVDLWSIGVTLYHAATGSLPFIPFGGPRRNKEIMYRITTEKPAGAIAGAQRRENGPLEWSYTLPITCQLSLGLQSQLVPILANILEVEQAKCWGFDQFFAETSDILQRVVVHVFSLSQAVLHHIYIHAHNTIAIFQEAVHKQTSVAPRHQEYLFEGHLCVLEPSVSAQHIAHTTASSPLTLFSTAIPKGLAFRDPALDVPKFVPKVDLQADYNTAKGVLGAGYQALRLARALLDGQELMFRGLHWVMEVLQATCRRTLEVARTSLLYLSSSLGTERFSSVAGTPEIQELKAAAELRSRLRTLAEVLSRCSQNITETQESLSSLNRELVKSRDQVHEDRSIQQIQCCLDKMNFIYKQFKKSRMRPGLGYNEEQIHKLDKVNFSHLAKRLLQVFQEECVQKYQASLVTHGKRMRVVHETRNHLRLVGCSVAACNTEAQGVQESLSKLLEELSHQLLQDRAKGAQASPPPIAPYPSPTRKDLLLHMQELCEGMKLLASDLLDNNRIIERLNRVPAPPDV

[27] = Apparent permeability from the apical to basolateral side in MDCK cells; format: ADME, cell-based, Canis lupus familiaris; details: dog
[28] = target: Tyrosine-protein kinase JAK2 (Homo sapiens) (UniProt O60674); experiment: Inhibition of JAK2 JH1JH2 domain (unknown origin) at 100 nM
[29] = target: Interleukin-1 receptor-associated kinase 4 (Homo sapiens) (UniProt Q9NWZ3); experiment: Inhibition of IRAK4 (unknown origin) at 100 nM
[30] = test system: Epidermal growth factor receptor (Homo sapiens), P00533 [L858R]; experiment: Inhibition of EGFR L858R mutant (unknown origin) at 100 nM; format: protein assay
[31] = target: High affinity nerve growth factor receptor (Homo sapiens) (UniProt P04629); experiment: Inhibition of TRKA (unknown origin) at 100 nM
[32] = target: Ephrin type-A receptor 2 (Homo sapiens) (UniProt P29317); experiment: Inhibition of EPHA2 (unknown origin) at 100 nM
[33] = target: Dual specificity mitogen-activated protein kinase kinase 1 (Homo sapiens) (UniProt Q02750); experiment: Inhibition of MEK1 (unknown origin) at 100 nM
[34] = target: Casein kinase I isoform delta (Homo sapiens) (UniProt P48730); experiment: Inhibition of CK1delta (unknown origin) at 100 nM
[35] = target: Megakaryocyte-associated tyrosine-protein kinase (Homo sapiens) (UniProt P42679); experiment: Inhibition of Hyl (unknown origin) at 100 nM
[36] = target: Serine/threonine-protein kinase N1 (Homo sapiens) (UniProt Q16512); experiment: Inhibition of PRK1 (unknown origin) at 100 nM

Tyrosine-protein kinase JAK2 (Homo sapiens), sequence (O60674 whole entry, the tested form may be a part): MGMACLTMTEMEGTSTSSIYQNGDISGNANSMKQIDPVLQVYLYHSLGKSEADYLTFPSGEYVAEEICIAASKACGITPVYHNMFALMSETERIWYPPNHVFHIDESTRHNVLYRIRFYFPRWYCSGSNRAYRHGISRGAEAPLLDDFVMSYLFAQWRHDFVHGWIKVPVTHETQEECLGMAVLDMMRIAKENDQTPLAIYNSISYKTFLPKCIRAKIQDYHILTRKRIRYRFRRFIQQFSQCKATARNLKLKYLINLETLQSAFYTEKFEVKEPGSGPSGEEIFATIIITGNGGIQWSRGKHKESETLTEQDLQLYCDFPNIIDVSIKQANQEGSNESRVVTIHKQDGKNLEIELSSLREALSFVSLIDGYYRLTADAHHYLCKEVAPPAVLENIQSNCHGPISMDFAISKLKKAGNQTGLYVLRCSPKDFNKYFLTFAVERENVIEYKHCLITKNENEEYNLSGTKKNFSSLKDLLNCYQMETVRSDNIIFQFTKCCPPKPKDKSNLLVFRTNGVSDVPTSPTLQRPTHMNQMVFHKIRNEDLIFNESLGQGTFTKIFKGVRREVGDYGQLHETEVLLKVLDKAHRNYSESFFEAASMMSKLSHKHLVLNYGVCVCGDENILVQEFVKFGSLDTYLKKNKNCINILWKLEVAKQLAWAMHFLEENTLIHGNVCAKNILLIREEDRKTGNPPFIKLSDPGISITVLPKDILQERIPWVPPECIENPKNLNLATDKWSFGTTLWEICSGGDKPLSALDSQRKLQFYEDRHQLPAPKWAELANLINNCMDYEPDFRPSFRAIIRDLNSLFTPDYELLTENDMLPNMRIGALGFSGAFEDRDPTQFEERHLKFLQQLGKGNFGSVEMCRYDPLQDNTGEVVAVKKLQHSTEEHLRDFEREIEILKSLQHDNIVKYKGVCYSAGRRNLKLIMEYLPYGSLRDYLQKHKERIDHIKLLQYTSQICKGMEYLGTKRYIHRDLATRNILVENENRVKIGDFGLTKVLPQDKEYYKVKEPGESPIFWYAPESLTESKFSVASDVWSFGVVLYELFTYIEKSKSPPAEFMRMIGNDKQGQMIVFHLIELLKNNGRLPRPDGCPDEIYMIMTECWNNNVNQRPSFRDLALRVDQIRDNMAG
Cyclin-dependent kinase 5/CDK5 activator 1 (Homo sapiens), sequence (Q00535 whole entry): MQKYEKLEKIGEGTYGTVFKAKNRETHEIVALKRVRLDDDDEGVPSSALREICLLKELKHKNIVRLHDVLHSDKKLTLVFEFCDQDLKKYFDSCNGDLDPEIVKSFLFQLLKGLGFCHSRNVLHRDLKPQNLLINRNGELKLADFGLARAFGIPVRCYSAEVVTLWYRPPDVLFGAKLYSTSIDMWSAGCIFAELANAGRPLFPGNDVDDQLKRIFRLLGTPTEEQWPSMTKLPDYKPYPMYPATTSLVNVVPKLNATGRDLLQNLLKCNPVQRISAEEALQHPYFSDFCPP
Cyclin-dependent kinase 5/CDK5 activator 1 (Homo sapiens), sequence (Q15078 99-307 partner limits assumed): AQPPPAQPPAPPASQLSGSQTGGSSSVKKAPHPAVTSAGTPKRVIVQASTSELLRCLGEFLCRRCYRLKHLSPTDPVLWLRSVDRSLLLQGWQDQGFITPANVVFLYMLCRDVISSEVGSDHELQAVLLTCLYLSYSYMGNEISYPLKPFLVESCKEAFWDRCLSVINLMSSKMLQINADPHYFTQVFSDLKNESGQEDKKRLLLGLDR
Serine/threonine-protein kinase PAK 4 (Homo sapiens), sequence (O96013 whole entry, looked up): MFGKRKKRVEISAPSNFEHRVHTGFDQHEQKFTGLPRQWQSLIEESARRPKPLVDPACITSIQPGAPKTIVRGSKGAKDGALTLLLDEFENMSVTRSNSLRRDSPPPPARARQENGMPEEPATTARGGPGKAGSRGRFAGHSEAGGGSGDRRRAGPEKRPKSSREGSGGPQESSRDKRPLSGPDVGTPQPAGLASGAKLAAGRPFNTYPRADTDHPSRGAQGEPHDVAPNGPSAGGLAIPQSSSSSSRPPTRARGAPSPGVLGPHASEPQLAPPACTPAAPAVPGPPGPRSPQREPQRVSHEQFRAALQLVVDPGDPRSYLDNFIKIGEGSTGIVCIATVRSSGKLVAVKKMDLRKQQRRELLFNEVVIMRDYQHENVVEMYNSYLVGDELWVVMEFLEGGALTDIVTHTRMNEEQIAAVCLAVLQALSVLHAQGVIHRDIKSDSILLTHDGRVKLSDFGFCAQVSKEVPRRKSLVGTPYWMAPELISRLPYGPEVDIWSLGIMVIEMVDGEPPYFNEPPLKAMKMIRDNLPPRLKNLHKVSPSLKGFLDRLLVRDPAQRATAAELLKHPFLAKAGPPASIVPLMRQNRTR
High affinity nerve growth factor receptor (Homo sapiens), sequence (P04629 33-796 limits assumed): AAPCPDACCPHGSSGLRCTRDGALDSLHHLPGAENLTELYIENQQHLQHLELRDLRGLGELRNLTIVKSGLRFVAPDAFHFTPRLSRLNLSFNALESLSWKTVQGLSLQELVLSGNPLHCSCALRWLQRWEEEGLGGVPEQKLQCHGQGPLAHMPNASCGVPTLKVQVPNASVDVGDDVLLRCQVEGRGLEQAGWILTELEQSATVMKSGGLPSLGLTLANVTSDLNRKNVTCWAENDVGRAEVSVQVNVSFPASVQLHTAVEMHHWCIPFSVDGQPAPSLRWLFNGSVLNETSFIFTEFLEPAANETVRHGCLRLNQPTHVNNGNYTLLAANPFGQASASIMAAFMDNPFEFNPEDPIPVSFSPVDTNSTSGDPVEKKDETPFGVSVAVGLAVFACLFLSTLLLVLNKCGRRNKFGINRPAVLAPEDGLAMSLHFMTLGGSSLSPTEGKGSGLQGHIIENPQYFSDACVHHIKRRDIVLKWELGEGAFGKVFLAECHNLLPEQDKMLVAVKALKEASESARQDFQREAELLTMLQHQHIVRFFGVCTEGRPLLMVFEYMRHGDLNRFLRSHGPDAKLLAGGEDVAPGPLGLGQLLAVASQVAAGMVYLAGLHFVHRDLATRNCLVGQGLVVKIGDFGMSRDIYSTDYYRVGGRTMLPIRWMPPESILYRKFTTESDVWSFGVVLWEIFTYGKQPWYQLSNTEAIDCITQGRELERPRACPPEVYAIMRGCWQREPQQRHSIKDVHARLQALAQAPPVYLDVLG
Epidermal growth factor receptor, sequence (P00533 whole entry): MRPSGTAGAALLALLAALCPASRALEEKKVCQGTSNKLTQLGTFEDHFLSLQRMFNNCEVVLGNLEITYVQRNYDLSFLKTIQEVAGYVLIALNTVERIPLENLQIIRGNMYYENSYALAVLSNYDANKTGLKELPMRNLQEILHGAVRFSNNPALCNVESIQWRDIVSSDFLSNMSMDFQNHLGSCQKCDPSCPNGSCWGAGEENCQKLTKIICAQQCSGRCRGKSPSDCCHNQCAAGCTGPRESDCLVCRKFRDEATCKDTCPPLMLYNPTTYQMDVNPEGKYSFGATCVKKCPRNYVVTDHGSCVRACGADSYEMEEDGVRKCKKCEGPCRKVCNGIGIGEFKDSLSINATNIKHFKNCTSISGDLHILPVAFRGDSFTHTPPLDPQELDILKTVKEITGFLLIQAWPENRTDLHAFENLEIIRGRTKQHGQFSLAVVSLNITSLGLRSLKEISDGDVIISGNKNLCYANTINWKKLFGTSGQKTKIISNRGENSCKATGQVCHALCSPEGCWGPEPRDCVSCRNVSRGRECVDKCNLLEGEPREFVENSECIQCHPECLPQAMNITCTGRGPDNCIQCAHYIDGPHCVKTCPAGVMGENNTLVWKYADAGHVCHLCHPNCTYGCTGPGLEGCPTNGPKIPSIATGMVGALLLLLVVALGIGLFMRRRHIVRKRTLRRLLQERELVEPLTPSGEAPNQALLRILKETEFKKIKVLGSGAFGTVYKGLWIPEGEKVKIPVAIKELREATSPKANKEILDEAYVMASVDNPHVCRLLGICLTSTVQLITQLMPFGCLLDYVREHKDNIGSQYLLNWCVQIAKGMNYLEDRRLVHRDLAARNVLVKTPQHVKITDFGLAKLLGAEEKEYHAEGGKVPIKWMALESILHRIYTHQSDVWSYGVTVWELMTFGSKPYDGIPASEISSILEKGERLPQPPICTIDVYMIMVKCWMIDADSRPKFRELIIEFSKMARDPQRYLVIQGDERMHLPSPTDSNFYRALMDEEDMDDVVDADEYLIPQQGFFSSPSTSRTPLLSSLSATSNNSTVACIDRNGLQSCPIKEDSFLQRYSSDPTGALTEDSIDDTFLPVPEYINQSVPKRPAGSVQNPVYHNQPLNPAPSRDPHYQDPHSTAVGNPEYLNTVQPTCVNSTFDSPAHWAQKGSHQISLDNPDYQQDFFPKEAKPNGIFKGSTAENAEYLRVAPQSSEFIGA
Ribosomal protein S6 kinase alpha-1 (Homo sapiens), sequence (Q15418 whole entry): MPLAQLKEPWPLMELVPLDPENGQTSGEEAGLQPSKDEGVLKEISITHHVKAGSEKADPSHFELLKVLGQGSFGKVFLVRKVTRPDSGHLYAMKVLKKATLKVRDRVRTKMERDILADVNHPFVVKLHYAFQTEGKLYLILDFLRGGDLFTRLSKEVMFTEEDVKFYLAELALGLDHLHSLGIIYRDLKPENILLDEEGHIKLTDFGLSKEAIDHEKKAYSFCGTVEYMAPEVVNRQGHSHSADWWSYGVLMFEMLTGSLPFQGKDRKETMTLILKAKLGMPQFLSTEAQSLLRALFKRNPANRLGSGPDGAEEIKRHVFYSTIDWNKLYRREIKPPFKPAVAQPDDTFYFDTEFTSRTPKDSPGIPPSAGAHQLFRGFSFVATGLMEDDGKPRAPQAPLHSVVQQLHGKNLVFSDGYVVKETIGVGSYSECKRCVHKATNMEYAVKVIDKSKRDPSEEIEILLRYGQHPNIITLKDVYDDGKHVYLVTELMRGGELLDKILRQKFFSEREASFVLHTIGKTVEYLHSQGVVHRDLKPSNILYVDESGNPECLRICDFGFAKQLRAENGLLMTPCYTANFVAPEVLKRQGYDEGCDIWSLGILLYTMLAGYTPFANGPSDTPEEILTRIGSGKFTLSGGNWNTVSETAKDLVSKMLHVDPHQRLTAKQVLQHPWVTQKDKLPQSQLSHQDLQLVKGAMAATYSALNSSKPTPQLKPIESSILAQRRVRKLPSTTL

| Compound | inhibition [1] | inhibition [2] | inhibition [3] | efflux ratio [4] | inhibition [5] | inhibition [6] | inhibition [7] | Vd [8] | inhibition [9] | inhibition [10] | inhibition [11] | inhibition [12] | inhibition [13] | inhibition [14] | inhibition [15] | inhibition [16] | inhibition [17] | inhibition [18] | inhibition [19] | inhibition [20] | also measured |
| --- | --- | --- | --- | --- | --- | --- | --- | --- | --- | --- | --- | --- | --- | --- | --- | --- | --- | --- | --- | --- | --- |
| CC1(C)OCc2c(Nc3n[nH]c4c(Cl)cccc34)nc(-c3cn[nH]c3)nc21 | -3.1% | 8.4% | 82% | 1.6 | 19.5% | 8.7% | 3.5% | 3.6 L/kg | 11.7% | -0.3% | 35.3% | 94.6% | 86.9% | 13.5% | 12.6% | -4% | 7% | 33% | 4.8% | 7.8% | inhibition [21]: 8.8%; pKi [22]: 8.82; inhibition [23]: 85.1%; inhibition [24]: 5.3%; inhibition [25]: 66.5%; inhibition [26]: 3.2%; Papp A→B [27]: 9.5 ×10⁻⁶ cm/s; inhibition [28]: 14%; inhibition [29]: 16.9%; inhibition [30]: 90.5%; inhibition [31]: 12.6%; inhibition [32]: 11.8%; inhibition [33]: 4.3% |
| CC1(C)OCc2c(Nc3n[nH]c4ccccc34)nc(-c3cn[nH]c3)nc21 | 0.2% | 2.1% | 79.6% | 2.4 | 13.9% | -1.6% | 7.7% | 6 L/kg | 7.9% | 18% | 54.1% | 88.1% | 50.6% | 4.4% | -8.1% | 6.8% | 0.4% | 35.1% | 13.3% | 0% | inhibition [34]: 13.1%; inhibition [35]: 0.8%; inhibition [21]: 9.8%; pKi [22]: 9.22; inhibition [23]: 27.7%; inhibition [24]: 1.9%; inhibition [25]: 47.3%; inhibition [26]: -8.7%; Papp A→B [27]: 6.7 ×10⁻⁶ cm/s; inhibition [28]: 1.9%; inhibition [29]: 4.3%; inhibition [36]: 3.7%; inhibition [30]: 97.7%; inhibition [31]: 10.2%; inhibition [32]: 12.2%; inhibition [33]: 2% |

Reference: ChEMBL document CHEMBL3758169, “4-Aminoindazolyl-dihydrofuro[3,4-d]pyrimidines as non-covalent inhibitors of mutant epidermal growth factor receptor tyrosine kinase” (Bioorg Med Chem Lett, 2016)
